Assay results as given in ChEMBL document CHEMBL1201862, “PubChem BioAssay data set” (2004).
The source made the active and inactive calls.

Tests used:
Prothrombin = Prothrombin (Homo sapiens, UniProt P00734); experiment: Thrombin 1536 HTS Dose Response Confirmation. [Related pubchem assays: 1046 (Thrombin 1536 HTS; hits were confirmed in this assay)]; type: functional
[1] = molecular target: T1, Alkaline phosphatase, tissue-nonspecific isozyme (Homo sapiens, UniProt P05186); experiment: TNAP enzyme inhibition by screening hits, dose response, selectivity assay for mouse IAP inhibitor project, biochemical, human TNAP, uHTS hits (AID 488906); type: functional
T1 sequence (P05186 whole entry): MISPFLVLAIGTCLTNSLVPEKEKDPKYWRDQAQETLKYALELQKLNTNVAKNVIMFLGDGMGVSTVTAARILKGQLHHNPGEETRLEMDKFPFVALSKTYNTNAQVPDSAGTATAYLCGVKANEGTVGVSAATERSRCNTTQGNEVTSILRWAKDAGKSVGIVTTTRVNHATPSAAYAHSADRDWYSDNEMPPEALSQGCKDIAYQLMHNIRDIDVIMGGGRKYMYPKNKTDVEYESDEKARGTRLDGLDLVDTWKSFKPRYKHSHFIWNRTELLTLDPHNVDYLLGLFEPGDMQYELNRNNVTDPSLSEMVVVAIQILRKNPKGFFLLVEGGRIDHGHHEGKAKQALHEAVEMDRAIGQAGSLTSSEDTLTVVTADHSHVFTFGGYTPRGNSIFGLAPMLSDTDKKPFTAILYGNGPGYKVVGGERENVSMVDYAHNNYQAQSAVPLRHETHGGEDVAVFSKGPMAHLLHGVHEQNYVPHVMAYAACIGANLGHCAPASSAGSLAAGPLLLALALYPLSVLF

[2] = molecular target: T2, Calpain-2 catalytic subunit (Sus scrofa, UniProt P43367); experiment: pig calpain II inhibitor potency, dose response, biochemical, fluorogenic peptide substrate (AID 1420); type: functional
T2 sequence (P43367 whole entry): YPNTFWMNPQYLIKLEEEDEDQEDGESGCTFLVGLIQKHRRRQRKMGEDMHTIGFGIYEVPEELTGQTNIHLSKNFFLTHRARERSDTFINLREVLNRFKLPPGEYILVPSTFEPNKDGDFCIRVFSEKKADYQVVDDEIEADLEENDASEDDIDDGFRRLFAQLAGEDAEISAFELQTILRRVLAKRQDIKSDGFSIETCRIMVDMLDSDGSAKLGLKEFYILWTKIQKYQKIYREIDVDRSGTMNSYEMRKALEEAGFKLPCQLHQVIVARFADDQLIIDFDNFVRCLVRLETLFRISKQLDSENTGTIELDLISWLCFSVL

[3] = molecular target: Intestinal-type alkaline phosphatase (Homo sapiens, UniProt P09923); experiment: inhibition of human intestinal alkaline phosphatase – biochemical, dose response (AID 488876); type: functional
Chain of Intestinal-type alkaline phosphatase (Homo sapiens, UniProt P09923) (P09923 whole entry): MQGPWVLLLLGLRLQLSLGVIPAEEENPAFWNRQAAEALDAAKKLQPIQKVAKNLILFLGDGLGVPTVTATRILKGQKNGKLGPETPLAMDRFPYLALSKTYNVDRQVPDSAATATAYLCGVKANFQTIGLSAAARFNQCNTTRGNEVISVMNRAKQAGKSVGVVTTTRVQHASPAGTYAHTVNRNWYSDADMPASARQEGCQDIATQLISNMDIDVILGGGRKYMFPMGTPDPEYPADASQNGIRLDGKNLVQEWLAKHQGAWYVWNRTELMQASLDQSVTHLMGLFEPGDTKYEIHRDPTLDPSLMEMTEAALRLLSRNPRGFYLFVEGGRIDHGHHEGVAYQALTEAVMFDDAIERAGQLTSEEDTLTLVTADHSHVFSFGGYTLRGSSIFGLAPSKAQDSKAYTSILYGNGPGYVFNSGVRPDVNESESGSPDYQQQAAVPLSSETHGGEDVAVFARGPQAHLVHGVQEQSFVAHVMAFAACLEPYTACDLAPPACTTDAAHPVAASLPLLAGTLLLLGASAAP

[4] = molecular target: Intestinal-type alkaline phosphatase (Mus musculus, UniProt P24822); experiment: PubChem AID 488785; type: functional
Chain of Intestinal-type alkaline phosphatase (Mus musculus, UniProt P24822) (P24822 whole entry): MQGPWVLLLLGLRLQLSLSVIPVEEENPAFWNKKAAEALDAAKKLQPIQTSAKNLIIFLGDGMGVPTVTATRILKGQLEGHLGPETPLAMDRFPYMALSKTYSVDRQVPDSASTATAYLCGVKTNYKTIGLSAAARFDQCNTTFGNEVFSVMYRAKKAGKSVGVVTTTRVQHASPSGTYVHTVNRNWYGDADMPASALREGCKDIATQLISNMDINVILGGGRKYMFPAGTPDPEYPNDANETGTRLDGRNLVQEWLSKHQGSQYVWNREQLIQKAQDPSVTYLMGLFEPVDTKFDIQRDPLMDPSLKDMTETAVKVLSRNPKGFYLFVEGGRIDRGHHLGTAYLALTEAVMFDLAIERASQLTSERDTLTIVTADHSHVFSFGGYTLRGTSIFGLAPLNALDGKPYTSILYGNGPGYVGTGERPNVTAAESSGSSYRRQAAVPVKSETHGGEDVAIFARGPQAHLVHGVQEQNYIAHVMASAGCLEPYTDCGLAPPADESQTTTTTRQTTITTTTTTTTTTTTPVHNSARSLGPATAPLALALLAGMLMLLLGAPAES

[5] = molecular target: Tyrosine-protein phosphatase non-receptor type 12 (Homo sapiens, UniProt Q05209); experiment: SAR Selectivity Analysis of small molecule inhibitors of PEST using pCAP in a fluorescence assay. [Related pubchem assays (depositor defined):AID1779, AID1784, AID2135]; type: functional
Chain of Tyrosine-protein phosphatase non-receptor type 12 (Q05209 whole entry): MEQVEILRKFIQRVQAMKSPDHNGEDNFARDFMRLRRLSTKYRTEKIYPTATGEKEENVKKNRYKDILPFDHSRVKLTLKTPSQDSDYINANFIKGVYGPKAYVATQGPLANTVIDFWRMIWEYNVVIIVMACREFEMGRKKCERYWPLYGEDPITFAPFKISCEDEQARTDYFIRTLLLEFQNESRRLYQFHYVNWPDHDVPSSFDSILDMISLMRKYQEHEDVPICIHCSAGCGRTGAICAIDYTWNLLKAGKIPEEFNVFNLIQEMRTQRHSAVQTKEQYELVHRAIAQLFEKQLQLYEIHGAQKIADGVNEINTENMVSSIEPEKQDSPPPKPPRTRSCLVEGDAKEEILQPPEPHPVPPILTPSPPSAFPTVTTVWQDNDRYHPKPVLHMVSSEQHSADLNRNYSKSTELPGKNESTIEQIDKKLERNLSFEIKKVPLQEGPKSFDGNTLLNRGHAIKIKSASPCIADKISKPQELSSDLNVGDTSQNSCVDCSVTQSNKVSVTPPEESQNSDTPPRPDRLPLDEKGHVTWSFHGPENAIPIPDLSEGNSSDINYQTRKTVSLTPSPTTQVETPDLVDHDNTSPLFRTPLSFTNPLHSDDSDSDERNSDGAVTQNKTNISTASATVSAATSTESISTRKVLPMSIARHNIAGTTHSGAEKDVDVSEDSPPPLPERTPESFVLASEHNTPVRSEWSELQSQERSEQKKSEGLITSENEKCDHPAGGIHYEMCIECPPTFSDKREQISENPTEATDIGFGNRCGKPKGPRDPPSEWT

[6] = molecular target: T3, Tyrosine-protein phosphatase non-receptor type 22 (Homo sapiens, UniProt Q9Y2R2); experiment: SAR LYP1 Fluorescent Assay using pCAP substrate for In Vitro dose response studies - Set 2. [Related pubchem assays (depositor defined):AID1779, AID1784, AID2135, AID449727]; type: functional
T3 sequence (Q9Y2R2 whole entry): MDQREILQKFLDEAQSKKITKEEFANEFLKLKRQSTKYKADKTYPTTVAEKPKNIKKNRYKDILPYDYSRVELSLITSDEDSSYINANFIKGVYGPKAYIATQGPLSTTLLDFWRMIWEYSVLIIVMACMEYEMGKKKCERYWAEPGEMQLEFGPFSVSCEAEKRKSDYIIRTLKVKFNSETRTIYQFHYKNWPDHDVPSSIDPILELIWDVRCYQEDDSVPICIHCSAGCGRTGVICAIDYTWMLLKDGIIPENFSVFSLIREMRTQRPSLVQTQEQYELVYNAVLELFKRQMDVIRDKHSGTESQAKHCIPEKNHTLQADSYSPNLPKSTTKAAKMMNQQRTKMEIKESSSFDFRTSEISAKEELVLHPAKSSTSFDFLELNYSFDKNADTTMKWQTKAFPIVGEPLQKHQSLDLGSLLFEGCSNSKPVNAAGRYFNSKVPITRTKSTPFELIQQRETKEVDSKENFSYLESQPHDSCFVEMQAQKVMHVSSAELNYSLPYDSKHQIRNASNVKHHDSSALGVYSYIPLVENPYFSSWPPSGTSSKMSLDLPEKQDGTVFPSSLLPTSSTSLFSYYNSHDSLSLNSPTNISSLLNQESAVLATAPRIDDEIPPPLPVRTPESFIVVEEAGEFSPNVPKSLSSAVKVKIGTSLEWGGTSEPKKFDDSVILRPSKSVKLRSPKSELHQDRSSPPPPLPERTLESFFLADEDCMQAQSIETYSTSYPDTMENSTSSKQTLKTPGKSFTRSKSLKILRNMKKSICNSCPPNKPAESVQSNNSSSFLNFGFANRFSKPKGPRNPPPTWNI

[7] = molecular target: T4, Tyrosine-protein phosphatase non-receptor type 7 (Homo sapiens, UniProt P35236); experiment: HePTP (PTPN7) phosphatase inhibitor potency, SAR follow-up, biochemical, set 2 (AID 449736); type: functional
T4 sequence (P35236 whole entry): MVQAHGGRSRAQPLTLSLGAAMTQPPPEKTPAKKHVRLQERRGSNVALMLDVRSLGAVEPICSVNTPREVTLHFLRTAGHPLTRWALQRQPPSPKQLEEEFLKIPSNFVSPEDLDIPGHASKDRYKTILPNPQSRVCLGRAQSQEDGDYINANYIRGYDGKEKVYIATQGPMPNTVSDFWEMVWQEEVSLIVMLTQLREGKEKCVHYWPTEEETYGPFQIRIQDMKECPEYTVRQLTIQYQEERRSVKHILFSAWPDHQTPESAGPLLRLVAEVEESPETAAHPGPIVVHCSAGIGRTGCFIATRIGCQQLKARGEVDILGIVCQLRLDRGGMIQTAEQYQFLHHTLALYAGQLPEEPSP

[8] = molecular target: T5, Carboxy-terminal domain RNA polymerase II polypeptide A small phosphatase 1 (Homo sapiens, UniProt Q9GZU7); experiment: inhibitors of CTDSP1, concentration-response testing, biochemical assay, absorbance-based, actives from ultra-high-throughput screening (AID 540297); type: functional
T5 sequence (Q9GZU7 whole entry): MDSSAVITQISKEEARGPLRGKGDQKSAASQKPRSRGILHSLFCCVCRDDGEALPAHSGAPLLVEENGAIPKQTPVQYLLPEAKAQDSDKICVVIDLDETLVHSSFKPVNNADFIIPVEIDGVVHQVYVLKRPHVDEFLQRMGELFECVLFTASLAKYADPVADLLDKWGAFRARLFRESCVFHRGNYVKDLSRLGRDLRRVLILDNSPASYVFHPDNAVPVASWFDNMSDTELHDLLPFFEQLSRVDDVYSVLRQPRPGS

[9] = molecular target: T3, Tyrosine-protein phosphatase non-receptor type 22; experiment: SAR LYP1 Fluorescent Assay using OMFP substrate for In Vitro dose response studies - Set 2. [Related pubchem assays (depositor defined):AID1779, AID1784, AID2140, AID449726, AID488869]; type: functional
[10] = molecular target: T3, Tyrosine-protein phosphatase non-receptor type 22; experiment: SAR LYP1 Fluorescent Assay using OMFP substrate for In Vitro dose response studies - Set 3. [Related pubchem assays (depositor defined):AID1779, AID1784, AID2140, AID2686]; type: functional
[11] = molecular target: T3, Tyrosine-protein phosphatase non-receptor type 22; experiment: LYP (PTPN22) phosphatase inhibitor potency, SAR follow-up, biochemical, pCAP fluorogenic substrate, fluorescence, set 3 (AID 449727); type: functional
[12] = molecular target: Lysine-specific demethylase 4C (Homo sapiens, UniProt Q9H3R0); experiment: GASC-1 (JMJD2C) histone demethylase inhibitors, dose response, biochemical, DELFIA europium, cherry-picked samples (AID 488835); type: functional
Chain of Lysine-specific demethylase 4C (Q9H3R0 whole entry): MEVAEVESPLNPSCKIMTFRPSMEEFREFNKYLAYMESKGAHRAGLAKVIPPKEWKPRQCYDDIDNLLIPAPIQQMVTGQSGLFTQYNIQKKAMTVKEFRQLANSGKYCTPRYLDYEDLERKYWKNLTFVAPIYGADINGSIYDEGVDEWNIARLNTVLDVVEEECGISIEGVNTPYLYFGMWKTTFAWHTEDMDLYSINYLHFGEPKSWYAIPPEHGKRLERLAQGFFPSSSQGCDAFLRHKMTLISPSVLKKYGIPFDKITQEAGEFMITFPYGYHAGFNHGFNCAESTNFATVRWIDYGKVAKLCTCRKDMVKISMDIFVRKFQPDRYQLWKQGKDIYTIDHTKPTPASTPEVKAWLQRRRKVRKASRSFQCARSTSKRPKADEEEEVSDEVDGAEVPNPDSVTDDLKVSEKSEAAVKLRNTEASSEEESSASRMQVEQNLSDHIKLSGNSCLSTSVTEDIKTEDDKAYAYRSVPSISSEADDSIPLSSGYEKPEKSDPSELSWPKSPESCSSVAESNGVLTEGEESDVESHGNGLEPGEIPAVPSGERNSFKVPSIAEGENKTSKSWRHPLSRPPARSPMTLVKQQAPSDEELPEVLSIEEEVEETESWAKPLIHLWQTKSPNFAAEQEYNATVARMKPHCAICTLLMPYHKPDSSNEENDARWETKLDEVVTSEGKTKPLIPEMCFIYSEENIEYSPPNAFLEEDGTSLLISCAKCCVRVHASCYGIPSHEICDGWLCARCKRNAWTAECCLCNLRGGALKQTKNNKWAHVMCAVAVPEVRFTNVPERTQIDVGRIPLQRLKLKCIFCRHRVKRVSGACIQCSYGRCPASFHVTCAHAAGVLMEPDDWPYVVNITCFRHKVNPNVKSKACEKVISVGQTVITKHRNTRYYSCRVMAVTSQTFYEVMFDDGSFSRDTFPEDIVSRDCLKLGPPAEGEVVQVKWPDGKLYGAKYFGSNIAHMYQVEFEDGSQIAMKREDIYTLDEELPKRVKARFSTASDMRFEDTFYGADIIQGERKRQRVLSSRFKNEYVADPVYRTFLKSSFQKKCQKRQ

[13] = molecular target: T6, Dual specificity protein phosphatase 6 (Rattus norvegicus, UniProt Q64346); experiment: MKP-3 phosphatase inhibitors, primary screen, biochemical, rat enzyme, in vitro (AID 425)
T6 sequence (Q64346 whole entry): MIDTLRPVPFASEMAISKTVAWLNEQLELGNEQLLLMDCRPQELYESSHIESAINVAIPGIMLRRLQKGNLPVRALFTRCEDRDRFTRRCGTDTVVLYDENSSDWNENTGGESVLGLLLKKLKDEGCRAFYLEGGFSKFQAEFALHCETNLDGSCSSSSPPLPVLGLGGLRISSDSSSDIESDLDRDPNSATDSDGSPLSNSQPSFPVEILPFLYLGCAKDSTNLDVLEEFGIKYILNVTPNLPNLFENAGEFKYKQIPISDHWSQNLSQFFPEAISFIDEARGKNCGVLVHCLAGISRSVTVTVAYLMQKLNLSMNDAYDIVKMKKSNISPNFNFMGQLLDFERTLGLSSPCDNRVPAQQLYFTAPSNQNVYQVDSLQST

[14] = molecular target: T7, Dual specificity protein phosphatase 3 (Homo sapiens, UniProt P51452); experiment: VHR1 phosphatase inhibitors, biochemical (AID 1878)
T7 sequence (P51452 whole entry): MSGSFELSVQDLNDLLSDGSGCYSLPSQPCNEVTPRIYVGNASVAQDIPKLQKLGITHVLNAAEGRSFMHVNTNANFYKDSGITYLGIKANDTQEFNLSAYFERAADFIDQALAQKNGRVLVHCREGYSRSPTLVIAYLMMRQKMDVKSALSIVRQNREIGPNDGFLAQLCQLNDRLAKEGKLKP

[15] = molecular target: T7, Dual specificity protein phosphatase 3; experiment: VHR1 phosphatase inhibitors, primary screen, biochemical, absorbance, uHTS (AID 1654)
[16] = molecular target: Sphingosine 1-phosphate receptor 1 (Homo sapiens, UniProt P21453); experiment: Late stage counterscreen assay for S1P4 antagonists: Fluorescence dose response cell-based screening assay for antagonists of the Sphingosine 1-Phosphate Receptor 1 (S1P1). [Related pubchem assays (depositor defined):AID1510, AID1524, AID1692, AID1853, AID2332, AID489009, AID489017]; type: functional
Chain of Sphingosine 1-phosphate receptor 1 (P21453 whole entry): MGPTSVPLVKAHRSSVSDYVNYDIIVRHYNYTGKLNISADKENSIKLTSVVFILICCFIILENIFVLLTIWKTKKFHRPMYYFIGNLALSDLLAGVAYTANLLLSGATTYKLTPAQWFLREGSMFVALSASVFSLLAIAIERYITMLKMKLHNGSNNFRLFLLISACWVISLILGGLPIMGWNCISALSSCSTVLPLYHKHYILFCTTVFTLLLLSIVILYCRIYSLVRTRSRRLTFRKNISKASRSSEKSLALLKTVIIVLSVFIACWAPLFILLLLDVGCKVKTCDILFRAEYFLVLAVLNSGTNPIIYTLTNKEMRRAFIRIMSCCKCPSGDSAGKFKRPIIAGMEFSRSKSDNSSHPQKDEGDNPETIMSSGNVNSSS

[17] = molecular target: Sphingosine 1-phosphate receptor 3 (Homo sapiens, UniProt Q99500); experiment: Late stage counterscreen assay for S1P4 antagonists: Fluorescence dose response cell-based screening assay for antagonists of the Sphingosine 1-Phosphate Receptor 3 (S1P3). [Related pubchem assays (depositor defined):AID1510, AID1524, AID1692, AID1853, AID2332, AID489009, AID489017]; type: functional
Chain of Sphingosine 1-phosphate receptor 3 (Q99500 whole entry): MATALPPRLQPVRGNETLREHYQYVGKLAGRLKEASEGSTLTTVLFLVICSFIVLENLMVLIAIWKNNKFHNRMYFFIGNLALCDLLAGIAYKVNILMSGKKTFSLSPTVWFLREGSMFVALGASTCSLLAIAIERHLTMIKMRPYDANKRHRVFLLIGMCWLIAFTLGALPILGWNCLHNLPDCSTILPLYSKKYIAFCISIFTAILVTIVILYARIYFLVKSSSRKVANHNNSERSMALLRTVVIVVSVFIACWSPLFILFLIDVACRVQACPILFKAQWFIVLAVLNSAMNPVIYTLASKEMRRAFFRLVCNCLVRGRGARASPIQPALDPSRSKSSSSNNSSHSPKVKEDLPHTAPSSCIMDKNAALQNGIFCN

[18] = molecular target: Sphingosine 1-phosphate receptor 2 (Homo sapiens, UniProt O95136); experiment: Late stage counterscreen assay for S1P4 antagonists: Fluorescence dose response cell-based screening assay for antagonists of the Sphingosine 1-Phosphate Receptor 2 (S1P2). [Related pubchem assays (depositor defined):AID1510, AID1524, AID1692, AID1853, AID2332, AID489009, AID489017]; type: functional
Chain of Sphingosine 1-phosphate receptor 2 (O95136 whole entry): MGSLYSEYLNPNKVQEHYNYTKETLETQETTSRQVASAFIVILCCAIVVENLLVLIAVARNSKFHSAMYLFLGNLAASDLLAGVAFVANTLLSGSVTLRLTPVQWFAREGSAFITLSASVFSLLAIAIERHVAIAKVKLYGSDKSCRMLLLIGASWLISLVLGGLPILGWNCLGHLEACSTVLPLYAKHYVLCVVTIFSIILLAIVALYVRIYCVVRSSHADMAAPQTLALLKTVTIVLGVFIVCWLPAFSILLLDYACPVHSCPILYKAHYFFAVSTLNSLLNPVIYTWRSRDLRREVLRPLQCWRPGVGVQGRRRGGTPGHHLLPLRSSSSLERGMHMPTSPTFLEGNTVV

[19] = molecular target: Sphingosine 1-phosphate receptor 5 (Homo sapiens, UniProt Q9H228); experiment: Late stage counterscreen assay for S1P4 antagonists: Fluorescence dose response cell-based screening assay for antagonists of the Sphingosine 1-Phosphate Receptor 5 (S1P5). [Related pubchem assays (depositor defined):AID1510, AID1524, AID1692, AID1853, AID2332, AID489009, AID489017]; type: functional
Chain of Sphingosine 1-phosphate receptor 5 (Q9H228 whole entry): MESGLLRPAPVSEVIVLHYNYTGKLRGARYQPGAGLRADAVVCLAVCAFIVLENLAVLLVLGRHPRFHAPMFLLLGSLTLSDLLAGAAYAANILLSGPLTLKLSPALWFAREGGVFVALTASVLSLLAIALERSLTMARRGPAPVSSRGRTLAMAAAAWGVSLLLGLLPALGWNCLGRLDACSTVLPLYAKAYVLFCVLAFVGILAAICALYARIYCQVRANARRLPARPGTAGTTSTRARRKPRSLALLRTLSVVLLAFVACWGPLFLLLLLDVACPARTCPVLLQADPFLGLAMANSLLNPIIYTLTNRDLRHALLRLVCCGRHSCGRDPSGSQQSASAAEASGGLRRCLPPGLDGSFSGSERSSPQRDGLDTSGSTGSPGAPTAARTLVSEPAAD

## COc1cccc(NC(S)=NCCC(c2ccccc2)c2ccccc2)c1
Prothrombin
  IC50: > 50 µM (not active)
[1]
  IC50: 92.7 µM (active)
[2]
  IC50: 3.72 µM (not active)
[3]
  IC50: > 100 µM (inactive)
[4]
  IC50: 5.12 µM (active)

## N#C/C(=C\c1ccc(OCc2ccc(F)cc2)cc1)C(=O)Nc1cccc(C(=O)O)c1
[5]
  IC50: 0.916 µM (active)
[6]
  IC50: 5.52 µM (active)
[7]
  IC50: 2.03 µM (active)
[8]
  IC50: 4.13 µM (active)
[9]
  IC50: 5.27 µM (active)
[10]
  IC50: 0.967 µM (active)
[11]
  IC50: 6.93 µM (active)

## O=C(Nc1cc(S(=O)(=O)N2CCOCC2)ccc1N1CCCC1)c1ccc(F)cc1
[12]
  AC50: 20.1 µM (active)

## Cc1snc2sc(C(=O)c3ccc(F)cc3)c(N)c12
[13]
  IC50: > 158 µM (not active)
[14]
  IC50: 2.03 µM (active)
[15]
  IC50: < 1.23 µM (inactive)

## Cc1ccc(C)c(NC(=O)c2ccc(-c3cc(Cl)ccc3Cl)o2)c1
[16]
  IC50: > 25 µM (inactive)
[17]
  IC50: > 25 µM (inactive)
[18]
  IC50: > 25 µM (inactive)
[19]
  IC50: > 25 µM (inactive)
